Measurements taken from patent US7629317B2, “Control of growth and repair of gastro-intestinal tissues by gastrokines and inhibitors” (The University of Chicago, priority 2001, dated 2009).
“Also recorded” adds a separate entry of the source. Like-named read-outs stand apart in the source and are kept apart here.

B1: rhAMP-18: recombinant human AMP-18 with N-terminal His6-tag replacing the signal peptide, expressed in E. coli (SEQ ID NO: 27) (protein)
chain: MRGSHHHHHHGSNYNIDVNDDNNNAGSGQQSVSVNNEHNVANVDNNNGWDSWNSIWDYGNGFAATRLFQKKTCIVHKMKKEVMPSIQSLDALVKEKKLQGKGPGGPPPKGLMYSVNPNKVDDLSKFGKNIANMCRGIPTYMAEEMQEASLFFYSGTCYTTSVLWIVDISFCGDTVEN
modifications: N-terminal His6 tag

Assays:
IEC-18 cells = assay: Growth of confluent cultures of IEC-18 cells (cell count); type: cell-based, rat; conditions: for EC50: read-out: half-maximal concentration (K1/2) for growth stimulation
Description: Confluent cultures of IEC-18 cells were prepared. One day later, medium was aspirated and replaced with 5 ml of DMEM containing CS (0.5%) and insulin, without (control) or with mitogenic peptide 58-99 (8 μg/ml). Sister plates receiving 1 ml medium and different amounts of peptide 67-85 were incubated at 1 hr at 38° C. on a CO2 incubator, and then an additional 4 ml of medium was added to each dish. Peptide 58-99 was added to 2 of the 4-sister plates at each concentration of peptide 67-85, and the number of cells was counted. […] Stimulation of cell growth by mitogenic peptide 58-99 was completely abolished by preincubation of cells with 0.25 μg/ml of peptide 67-85. […] Values for the number of cells per culture are shown relative to multiplication of cells exposed to the vehicle during the same period.
Urea (6 M) was employed to release proteins from the insoluble fraction solubilize rhAMP-18 containing the His6-tag (SEQ ID NO: 16), and make it available to bind to the Ni^2+-charged resin from which it was subsequently eluted with a gradient of imidazole (0 to 200 mM). The amount of eluted rhAMP-18 was measured using the BCA assay, and the appearance of a single band at the predicted size of 19-20 kD was confirmed by SDS-PAGE followed by immunoblotting. To determine if eluted rhAMP-18 renatured to assume a structure that was mitogenic, aliquots of the eluate (following removal of urea and imidazole by dialysis) were added to cultures of IEC-18 cells and the number of cells was counted 4 days later. […] AMP peptide 77-97 refers to the mature protein; same as peptide 97-117 of human precursor protein: Table 1. These observations indicate that biologically active recombinant human AMP-18 that can be utilized in diverse clinical situations is available. The mitogenic potency of rhAMP-18 is in the nanomolar range which would be expected for a native gastric cell growth factor that participates in the maintenance and repair of the stomach in vivo.
(§1) To characterize the capacity of gastric and intestinal cells to respond to AMP-18, AGS gastric adenocarcinoma cells, HAE human gastric antrum mucosa primary cultures transformed with SV40 large T antigen, rat diploid small intestinal epithelial cells of the IEC-6 (FIG. 15) and IEC-18 lines, NCI N-87 gastric carcinoma cells, and SK-GT5 gastroesophageal adenocarcinoma cells were studied; human WI-38 fibroblasts and HeLa cells served as non-GI control cell lines. Mitogenesis was assayed by performing cell counts 3 to 4 days after exposing cells to the agent of interest, trypsinizing the culture to prepare single cells, and confirming this while counting them in a hemocytometer.

AGS cells = assay: Growth of gastric epithelial AGS cells (cell count four days later); type: cell-based, human; conditions: peptide 77-97 8 μg/ml, EGF 50 ng/ml at saturating doses
Description: as §1

IEC-6 cells = assay: Growth of intestinal epithelial IEC-6 cells (cell count); type: cell-based, rat
Description: IEC-6 cells were grown in 60-mm dishes. […] Values are means±SE for 3 cultures.
as §1

HAE cells [1] = assay: Growth of human antrum epithelial (HAE) cells (cell count 4 days later); type: cell-based; conditions: peptide 77-97 8 μg/ml, EGF 50 ng/ml, 4 days
Description: (§2) To measure growth (left panel), HAE cells were plated in 60-mm dishes. Peptide 77-97 (8 μg/ml), or EGF (50 ng/ml), or both were added to the medium and the number of cells counted 4 days later. […] Values are means±SE for 3 cultures. To measure migration (right panel), cells were grown in 60-mm dishes to prepare a confluent monolayer. The medium was aspirated and replaced with fresh medium containing 0.01% calf serum (CS). The monolayer was mechanically wounded by scraping with a razor blade. Detached cells were removed by aspirating medium, and rinsing the remaining cells twice with fresh medium containing 0.01% CS. Fresh medium (5 ml) containing CS (0.01%) and insulin (100 U/L) was added to wounded cultures. Either peptide 77-97 (8 μg/ml), EGF (50 ng/ml), or both were added to duplicate cultures. Migration was assessed at 24, 48 and 72 hr after wounding by measuring the distance (in mm) that cells had migrated from the wound edge using a microscope eyepiece reticle (10-mm long; 0.1-mm markings). Migrating cells at 12 randomly chosen sites along a 0.25-mm stretch of the wound edge were measured at 40-fold magnification. Migration at 2 different sites was measured for each of 2 separate wounds made in each culture. Values are the mean distance cells moved into the denuded area from the edge of 4 different wounds in 2 cultures±SE.
as §1

HAE cells [2] = assay: Wound restitution (migration) of scrape-wounded HAE cell monolayers; type: cell-based, human; conditions: peptide 8 μg/ml, EGF 50 ng/ml; 24-72 hr
Description: as §2
Confluent monolayer cultures were mechanically wounded by scraping with a razor blade, and the distance that cells migrated from the wound edge was measured using a microscope eyepiece reticle.

MDCK cells = assay: Transepithelial electrical resistance (TER) of MDCK cell monolayers; type: cell-based; conditions: monochloramine 0.1 mM, 90 min; EGF 50 ng/ml
Description: Monolayer cultures of MDCK cells were grown on permeable polycarbonate filters (0.4-μm pore size) (Transell) in DMEM containing FBS (2%) without (control) or with peptide 77-97 (8 μg/ml) for 8 days. TER was measured 24 hr after the cells were plated, and at specified times thereafter using an epithelial volt-ohm meter (EVOM, Millipore). Following each measurement, medium containing FBS without or with peptide was changed (0, 48, and 144 hr), and additional peptide 77-97 (8 μg/ml) was added at 30 and 72 hr. At 72 hr, TER in cultures that received peptide 77-97 was twice as high as in control cultures. Values are means for 3 cultures; variance is <10% of the mean. TER was measured from 3 different areas on the filter.
(§3) Panel A: When a stable TER was reached (330 Ω·cm^2) in MDCK cell monolayers the medium was changed to DMEM containing FBS (0.2%), and either peptide 77-97 (8 μg/ml) or EGF (50 ng/ml). After 18 hr, peptide 77-97 or EGF were added to the specified wells. One hour later monochloramine (0.1 mM), like the other agents, was added to the apical and basal compartments of the Transwell. […] Panels B, C: Caco2/bbe (C2) subclone monolayers were grown on collagen-coated polycarbonate filters until a stable TER was reached (225 Ω·cm^2). Spent medium was replaced with fresh medium containing FBS (0.1%) alone or with peptide 77-97 (8 μg/ml). After 18 hr, monochloramine (0.3 mM, B) or indomethacin (0.1 mM, C) was added to both compartments of the Transwell. At time 0, cultures received either vehicle (control), vehicle plus oxidant or indomethacin, or peptide 77-97 and oxidant or indomethacin. TER of injured cultures treated with vehicle decreased by ˜35% at 90 min, whereas peptide-treated cultures declined ˜10%.

[3] = system: occludin, ZO-1, ZO-2, claudin-5, E-cadherin, JAM; assay: Accumulation of tight and adherens junction proteins in C2 cells (immunoblot of insoluble fraction, confocal microscopy); type: cell-based, human; conditions: 8 hr
Description: To find out how the peptide exerts its cytoprotective effect, C2 cell monolayers were treated with AMP peptide, and oxidant injury was induced with monochloramine 18 hours later. Changes in the levels of specific tight junction (TJ) proteins were checked. Cells were lysed, and proteins of the insoluble/particulate fraction were studied by immunoblotting. […] This observation represents the first evidence that AMP peptide enhances accumulation of specific TJ proteins in colonic epithelial cells. […] To carry out this experiment, C2 cells were exposed to AMP peptide for different periods of time, the NP-40-insoluble fraction was obtained, Western blots were prepared, and the amount of each immunoreactive protein was quantified. A 65% increase in immunoreactivity of each protein compared to control was detected for occludin after 2 hr, and for ZO-1 at 8 hr. Hsc73, which is constitutively expressed in these cells, was not altered by exposure to AMP peptide for up to 18 hr.
Confluent monolayers of C2 cells were treated with AMP peptide or vehicle for 8 hr. Cells were then collected, proteins in the NP-40-insoluble fraction were separated by SDS-PAGE, immunoblots were prepared, and the relative amounts of immunoreactive proteins were compared by densitometric analysis. […] These changes appear relatively specific for occludin, ZO-1, ZO-2, claudin-5, E-cadherin, and JAM because they were not observed for several other proteins localized in the TJ (claudin-1, claudin-2), adherens junction (β-catenin), plasma membrane (Na-K-2Cl cotransporter, α or β subunit of Na-K-ATPase), or cytosol (Rho A, hsc73).
To better understand the mechanism(s) by which AMP peptide enhances accumulation of TJ-associated proteins, experiments were performed to determine whether the peptide exerted its effect at the apical or basolateral surface of C2 cells. Monolayers of C2 cells were grown on Transwell filters, AMP peptide (8:g/ml) was added to the apical or basolateral compartment of the Transwell, and cells were harvested 8 hr later. The NP-40-insoluble fraction was obtained, its proteins separated, and immunoblots were prepared.

NCI N-87 cells = assay: Growth of NCI N-87 gastric carcinoma cells; type: cell-based; conditions: concentration-dependent
Description: as §1

SK-GT5 cells = assay: Growth of SK-GT5 gastroesophageal adenocarcinoma cells; type: cell-based; conditions: concentration-dependent
Description: as §1

Caco2/bbe (C2) cells = assay: Transepithelial electrical resistance (TER) of Caco2/bbe (C2) cell monolayers after injury; type: cell-based, human; conditions: monochloramine 0.3 mM, 45 min; rhAMP-18 100 nanomolar or peptide 3.7 micromolar pre-treatment; oxidant alone ~35%
Description: as §3
C2 cell monolayers were grown in DMEM containing FBS (5%) and transferrin (10 μg/ml) on collagen-coated polycarbonate filters until a stable TER was reached (225 Ωcm^2). At time 0, cells were exposed to no DSS (control), or DSS (4%) in the upper compartment of the Transwell. AMP peptide 77-97 (8 μg/ml) was added to the upper and lower compartments of the Transwell 1 day prior to the addition of DSS at time 0. TER of DSS-injured cultures treated with vehicle decreased by ˜70% at 45 min, whereas peptide-treated cultures declined ˜10% at that time. […] Values are means for ≧6 cultures.
Confluent C2 cell monolayers were prepared on Transwells until a stable TER was established. Medium was replaced with fresh medium containing FBS (0.1%) alone (control), or with either rhAMP-18 (100 nanomolar) or peptide 77-97 (3.7 micromolar). After 18 hr, monochloramine (0.3 mM) was added to both compartments of the Transwell, and cultures received either vehicle (control), vehicle plus oxidant, rhAMP-18 and oxidant, or peptide 77-97 and oxidant, after which TER was measured.
To determine whether AMP peptide could speed recovery of TER after DSS-induced colonic cell injury, a highly sought-after functional characteristic of an agent designed to treat IBD, C2 cell monolayers were exposed to DSS (5%) for 10 min which reduced TER to 33±6% of the control value (FIG. 29, left panel). DSS was removed by aspirating the medium and replacing it with fresh medium. AMP peptide 77-97 (8 μg/ml) or vehicle was added to the culture medium, and TER was measured 18 hr later. In the presence of the vehicle, TER increased from 33% to 66±7% of the control value, whereas cells exposed to AMP peptide reached a value 112±4% of control.
To determine if the cytoprotective effect of AMP peptide is mediated at the level of the actin cytoskeleton, C2 cell monolayers were exposed to cytochalasin D, an agent known to disrupt actin filaments and compromise barrier function (Madara et al., 1986).
To determine if AMP peptide could play a cytoprotective role in GDS, a study was carried out in C2 cell monolayers that were exposed to the PA-I lectin. […] Next the effect of AMP peptide was studied in the mouse model of P. aeruginosa-induced-GDS (Laughlin et al., 2000) using female Balb/c mice subjected to 30% hepatectomy, injection of a solution of living P. aeruginosa into the cecum, and food deprivation postoperatively. All 8 of the mice survived surgery.

[4] = system: stomach and intestinal epithelial cells; assay: Concentrations at which gastric peptide mediators exert their effects in culture; type: cell-based

Row | Molecule | increase in cell number (IEC-18 cells; 3 days, peptide 58-99 8 μg/ml, EGF 50 ng/ml, vehicle 290%) [%] | growth stimulation of AGS cells (in words) (AGS cells) | growth stimulation of IEC-6 cells (in words) (IEC-6 cells) | proliferation of HAE cells (in words) (HAE cells [1]) | migration from the wound edge compared with vehicle (HAE cells [2]) | loss of TER after oxidant exposure (MDCK cells) | accumulation of occludin and ZO-1 (specificity) ([3]; peptides 8 μg/ml, EGF 50 ng/ml) | growth of NCI N-87 cells (NCI N-87 cells) | growth of SK-GT5 cells (SK-GT5 cells) | concentration of maximal mitogenic effect (IEC-18 cells; FIG. 18) [nM] | growth stimulation of IEC-18 cells (in words) (IEC-18 cells; added alone, peptides up to 8 μg/ml) | EC50 (IEC-18 cells; confluent IEC-18 cultures, FIG. 13) [nM] | EC50 (IEC-18 cells; recently purified rhAMP-18, FIG. 18) [nM] | decline in TER after monochloramine (Caco2/bbe (C2) cells) [%] | immunoreactive ZO-1 and occludin versus vehicle-treated cells ([3]; 100 nanomolar, laser densitometry) | concentrations at which physiological effects can occur [4] [nM]
1 | EGF: polypeptide mitogen used for comparison at 50 ng/ml [reference compound] | 402 | stimulated growth; also recorded: mitogenic | stimulated | stimulated proliferation | stimulated cell movement | 35-40% | not replicated | stimulated | stimulated |  |  |  |  |  |  | 
2 | B1 |  |  |  |  |  |  |  |  |  | 5 | stimulates cell proliferation to the same maximal extent | ~30 | ~5 | ~10 | about two-fold | < 50
